Test results published in patent US5637501A, “Apparatus for automatically testing the antibiotic sensitivity of a paraffinophilic microorganism” (Infectech, Inc., priority 1995, dated 1997).
In brackets after ≈: the same amount, converted by molar mass. Where two headings read alike, the source gives them in different places.

Tested on: MAI
Experiment: antibiotic sensitivity (MIC) of MAI strains, paraffin slide culture and microliter assays
Assay type: cell-based, Mycobacterium avium-intracellulare
Parameters: key: NG: No Growth
Text: The present invention has met the above-described need. In one embodiment, it provides a method of automatically testing the sensitivity of a paraffinophilic microorganism to different antimicrobial agents, such as antibiotics, and concentrations thereof, by providing a plurality of receptacles, each containing an amount of liquid medium, an antimicrobial agent to be tested and the microorganism to be tested. In each of the receptacles is placed a slide containing a paraffin source. The receptacles are then incubated, after which a light scatter sensing means automatically and sequentially monitors the extent of microorganism growth on the slides. The extent of colony growth is employed to determine which antimicrobial agent in which concentration is effective to resist growth of the microorganism. A preferred light scatter sensing means is a nephelometer.
Referring specifically to FIG. 1, there is shown a preferred embodiment of the present invention usable in a method of automatically testing the sensitivity of a pure culture of a microorganism to different antimicrobial agents and concentrations thereof. In this embodiment, a microorganism, which may have been previously speciated as by the technique taught in U.S. Pat. No. 5,153, 119, has been introduced into a plurality of receptacles, each containing an amount of liquid medium and antimicrobial agent to be tested. A paraffin slide is introduced into each of the receptacles which are subsequently incubated. The receptacles 2-22 (even numbers only) are fixedly secured to an elongated, substantially rigid movable carrier member 26, such that the receptacles 2-22 will be translated therewith in the direction shown by the arrow A. The carrier member 26 may be made of any suitable material, such as aluminum, steel, stainless steel, or resinous plastic, for example. The receptacles 2-22, respectively, contain slides 32-52 (even numbers only). The slides 32-52 are fixedly secured, respectively, within receptacles 2-22 which may test tubes. The slides 32-52 are generally oriented so as to have their elongated direction aligned with the direction of travel of the carrier 26. As the carrier moves in the direction of arrow A, the slides 2-22 will sequentially be positioned in operative relationship to the light scatter sensing means which consists of light source 60, which directs a light beam toward light detector 62. In the preferred embodiment, a beam of visible light from light source 60 will impinge upon slide 32, with the growth of the microorganism thereon producing a corresponding scatter of light which is received by the light receiving sensor 62 and converts the received light into an appropriate output electrical signal which will be delivered to computer means 64. The computer means 64, in turn, provides output to output means 66, which may conveniently be a display, such as a cathode ray tube or a hard copy printer, for example. The degree of light scatter will be related to the extent of microorganism growth with light scatter increasing as growth on the slide increases.
The computer means 64 may be a general purpose digital microprocessor. It may be programmed in a manner readily known to those skilled in the art to sequentially compare the light scatter value of each slide 32-52 with that of a control slide and to provide an output to output means 66, such as a visual screen display or hard copy, with or without prior enhancement, which indicates the difference between the control slide and the specific slides containing the same pure culture of a paraffinophilic microorganism, but exposed to different concentrations of different or the same antimicrobial agents, such an antibiotics. In this manner, there is provided the minimal concentration level of a specific antimicrobial agent that must be used to control growth of the microorganism. Also, the minimum bactericidal concentration may be determined. […]

[1] = Table 2, Exp. Series I, strain 7

NCC[C@H](O)C(=O)N[C@@H]1C[C@H](N)[C@@H](O[C@H]2O[C@H](CN)[C@@H](O)[C@H](O)[C@H]2O)[C@H](O)[C@H]1O[C@H]1O[C@H](CO)[C@@H](O)[C@H](N)[C@H]1O [amikacin]
MIC (Mycobacterium avium-intracellulare, Table 2, Exp. Series I, strain 1, read-out: MIC): > 16 µg/mL
MIC (Mycobacterium avium-intracellulare, Table 2, Exp. Series I, strain 2, read-out: MIC): > 16 µg/mL
MIC (Mycobacterium avium-intracellulare, Table 2, Exp. Series I, strain 3, read-out: MIC): 6.4 µg/mL (≈ 10.9 µM)
MIC (Mycobacterium avium-intracellulare, Table 2, Exp. Series I, strain 4, read-out: MIC): 3.2 µg/mL (≈ 5.46 µM)
MIC (Mycobacterium avium-intracellulare, Table 2, Exp. Series I, strain 5, read-out: MIC): 6.4 µg/mL (≈ 10.9 µM)
MIC (Mycobacterium avium-intracellulare, Table 2, Exp. Series I, strain 6, read-out: MIC): 12 µg/mL (≈ 20.5 µM)
MIC (Mycobacterium avium-intracellulare, Table 2, Exp. Series I, strain 8, read-out: MIC): > 16 µg/mL
MIC (Mycobacterium avium-intracellulare, Table 2, Exp. Series I, strain 9, read-out: MIC): 12 µg/mL (≈ 20.5 µM)
MIC (Mycobacterium avium-intracellulare, Table 2, Exp. Series I, strain 10, read-out: MIC): 6.4 µg/mL (≈ 10.9 µM)
MIC (Mycobacterium avium-intracellulare, Table 2, Exp. Series I, strain 11, read-out: MIC): 7.3 µg/mL (≈ 12.5 µM)
MIC (Mycobacterium avium-intracellulare, Table 2, Exp. Series I, strain 12, read-out: MIC): 3.2 µg/mL (≈ 5.46 µM)
MIC (Mycobacterium avium-intracellulare, Table 2, Exp. Series I, strain 13, read-out: MIC): 3.2 µg/mL (≈ 5.46 µM)
MIC (Mycobacterium avium-intracellulare, Table 2, Exp. Series I, strain 14, read-out: MIC): 9.6 µg/mL (≈ 16.4 µM)
MIC (Mycobacterium avium-intracellulare, Table 2, Exp. Series I, strain 15, read-out: MIC): 6.4 µg/mL (≈ 10.9 µM)
MIC (Mycobacterium avium-intracellulare, Table 2, Exp. Series I, strain 16, read-out: MIC): 6.4 µg/mL (≈ 10.9 µM)
MIC (Mycobacterium avium-intracellulare, Table 2, Exp. Series II, strain 1, read-out: MIC): > 16 µg/mL
MIC (Mycobacterium avium-intracellulare, Table 2, Exp. Series II, strain 2, read-out: MIC): 12 µg/mL (≈ 20.5 µM)
MIC (Mycobacterium avium-intracellulare, Table 2, Exp. Series II, strain 3, read-out: MIC): 6.4 µg/mL (≈ 10.9 µM)
MIC (Mycobacterium avium-intracellulare, Table 2, Exp. Series II, strain 4, read-out: MIC): 6.4 µg/mL (≈ 10.9 µM)
MIC (Mycobacterium avium-intracellulare, Table 2, Exp. Series II, strain 5, read-out: MIC): 3.2 µg/mL (≈ 5.46 µM)
MIC (Mycobacterium avium-intracellulare, Table 2, Exp. Series II, strain 6, read-out: MIC): 3.2 µg/mL (≈ 5.46 µM)
MIC (Mycobacterium avium-intracellulare, Table 2, Exp. Series II, strain 7, read-out: MIC): 6.4 µg/mL (≈ 10.9 µM)
MIC (Mycobacterium avium-intracellulare, Table 2, Exp. Series II, strain 8, read-out: MIC): > 16 µg/mL
MIC (Mycobacterium avium-intracellulare, Table 2, Exp. Series II, strain 9, read-out: MIC): 3.2 µg/mL (≈ 5.46 µM)
MIC (Mycobacterium avium-intracellulare, Table 2, Exp. Series II, strain 10, read-out: MIC): 6.4 µg/mL (≈ 10.9 µM)
MIC (Mycobacterium avium-intracellulare, Table 2, Exp. Series II, strain 11, read-out: MIC): 9.6 µg/mL (≈ 16.4 µM)
MIC (Mycobacterium avium-intracellulare, Table 2, Exp. Series II, strain 12, read-out: MIC): 6.4 µg/mL (≈ 10.9 µM)
MIC (Mycobacterium avium-intracellulare, Table 2, Exp. Series II, strain 13, read-out: MIC): 9.6 µg/mL (≈ 16.4 µM)
MIC (Mycobacterium avium-intracellulare, Table 2, Exp. Series II, strain 14, read-out: MIC): > 16 µg/mL
MIC (Mycobacterium avium-intracellulare, Table 2, Exp. Series II, strain 15, read-out: MIC): 6.4 µg/mL (≈ 10.9 µM)
MIC (Mycobacterium avium-intracellulare, Table 2, Exp. Series II, strain 16, read-out: MIC): 9.6 µg/mL (≈ 16.4 µM)
MIC (Mycobacterium avium-intracellulare, Table 2, Exp. Series III, strain 1, read-out: MIC): 3.2 µg/mL (≈ 5.46 µM)
MIC (Mycobacterium avium-intracellulare, Table 2, Exp. Series III, strain 2, read-out: MIC): 3.2 µg/mL (≈ 5.46 µM)
MIC (Mycobacterium avium-intracellulare, Table 2, Exp. Series III, strain 3, read-out: MIC): 6.4 µg/mL (≈ 10.9 µM)
MIC (Mycobacterium avium-intracellulare, Table 2, Exp. Series III, strain 4, read-out: MIC): 3.2 µg/mL (≈ 5.46 µM)
MIC (Mycobacterium avium-intracellulare, Table 2, Exp. Series III, strain 5, read-out: MIC): 3.2 µg/mL (≈ 5.46 µM)
MIC (Mycobacterium avium-intracellulare, Table 2, Exp. Series III, strain 6, read-out: MIC): 3.2 µg/mL (≈ 5.46 µM)
MIC (Mycobacterium avium-intracellulare, Table 2, Exp. Series III, strain 7, read-out: MIC): 6.4 µg/mL (≈ 10.9 µM)
MIC (Mycobacterium avium-intracellulare, Table 2, Exp. Series III, strain 8, read-out: MIC): 3.2 µg/mL (≈ 5.46 µM)
MIC (Mycobacterium avium-intracellulare, Table 2, Exp. Series III, strain 9, read-out: MIC): 3.2 µg/mL (≈ 5.46 µM)
MIC (Mycobacterium avium-intracellulare, Table 2, Exp. Series III, strain 10, read-out: MIC): 3.2 µg/mL (≈ 5.46 µM)
MIC (Mycobacterium avium-intracellulare, Table 2, Exp. Series III, strain 11, read-out: MIC): 6.4 µg/mL (≈ 10.9 µM)
MIC (Mycobacterium avium-intracellulare, Table 2, Exp. Series III, strain 12, read-out: MIC): 6.4 µg/mL (≈ 10.9 µM)
MIC (Mycobacterium avium-intracellulare, Table 2, Exp. Series III, strain 13, read-out: MIC): 6.4 µg/mL (≈ 10.9 µM)
MIC (Mycobacterium avium-intracellulare, Table 2, Exp. Series III, strain 14, read-out: MIC): 6.4 µg/mL (≈ 10.9 µM)
MIC (Mycobacterium avium-intracellulare, Table 2, Exp. Series III, strain 15, read-out: MIC): 3.2 µg/mL (≈ 5.46 µM)
MIC (Mycobacterium avium-intracellulare, Table 2, Exp. Series III, strain 16, read-out: MIC): 3.2 µg/mL (≈ 5.46 µM)
Days to Confluency (Table 2, Exp. Series I, strain 1): 7 days
Days to Confluency (Table 2, Exp. Series I, strain 2): 7 days
Days to Confluency (Table 2, Exp. Series I, strain 3): 8 days
Days to Confluency (Table 2, Exp. Series I, strain 4): 8 days
Days to Confluency (Table 2, Exp. Series I, strain 5): 7 days
Days to Confluency (Table 2, Exp. Series I, strain 6): 7 days
Days to Confluency [1]: NG
MIC [1]: NG
Days to Confluency (Table 2, Exp. Series I, strain 8): 7 days
Days to Confluency (Table 2, Exp. Series I, strain 9): 8 days
Days to Confluency (Table 2, Exp. Series I, strain 10): 6 days
Days to Confluency (Table 2, Exp. Series I, strain 11): 5 days
Days to Confluency (Table 2, Exp. Series I, strain 12): 5 days
Days to Confluency (Table 2, Exp. Series I, strain 13): 6 days
Days to Confluency (Table 2, Exp. Series I, strain 14): 5 days
Days to Confluency (Table 2, Exp. Series I, strain 15): 5 days
Days to Confluency (Table 2, Exp. Series I, strain 16): 5 days
Days to Confluency (Table 2, Exp. Series II, strain 1): 7 days
Days to Confluency (Table 2, Exp. Series II, strain 2): 7 days
Days to Confluency (Table 2, Exp. Series II, strain 3): 9 days
Days to Confluency (Table 2, Exp. Series II, strain 4): 5 days
Days to Confluency (Table 2, Exp. Series II, strain 5): 5 days
Days to Confluency (Table 2, Exp. Series II, strain 6): 5 days
Days to Confluency (Table 2, Exp. Series II, strain 7): 5 days
Days to Confluency (Table 2, Exp. Series II, strain 8): 7 days
Days to Confluency (Table 2, Exp. Series II, strain 9): 6 days
Days to Confluency (Table 2, Exp. Series II, strain 10): 6 days
Days to Confluency (Table 2, Exp. Series II, strain 11): 6 days
Days to Confluency (Table 2, Exp. Series II, strain 12): 6 days
Days to Confluency (Table 2, Exp. Series II, strain 13): 6 days
Days to Confluency (Table 2, Exp. Series II, strain 14): 6 days
Days to Confluency (Table 2, Exp. Series II, strain 15): 6 days
Days to Confluency (Table 2, Exp. Series II, strain 16): 6 days
Days to Confluency (Table 2, Exp. Series III, strain 1): 5 days
Days to Confluency (Table 2, Exp. Series III, strain 2): 5 days
Days to Confluency (Table 2, Exp. Series III, strain 3): 12 days
Days to Confluency (Table 2, Exp. Series III, strain 4): 6 days
Days to Confluency (Table 2, Exp. Series III, strain 5): 5 days
Days to Confluency (Table 2, Exp. Series III, strain 6): 5 days
Days to Confluency (Table 2, Exp. Series III, strain 7): 5 days
Days to Confluency (Table 2, Exp. Series III, strain 8): 5 days
Days to Confluency (Table 2, Exp. Series III, strain 9): 7 days
Days to Confluency (Table 2, Exp. Series III, strain 10): 5 days
Days to Confluency (Table 2, Exp. Series III, strain 11): 5 days
Days to Confluency (Table 2, Exp. Series III, strain 12): 5 days
Days to Confluency (Table 2, Exp. Series III, strain 13): 6 days
Days to Confluency (Table 2, Exp. Series III, strain 14): 5 days
Days to Confluency (Table 2, Exp. Series III, strain 15): 5 days
Days to Confluency (Table 2, Exp. Series III, strain 16): 5 days
